Measurements published in patent publication US11203773B2, “Designer ribosomes and methods of use thereof for incorporating non-standard amino acids into polypeptides” (Yale University, priority 2016, dated 2021).
Read-outs that look alike come from different tables or passages of the source.

Key:
[1] = biological target: T1, E. coli GlyRS (Escherichia coli, UniProt P00960); settings: for krev (apparent rate of deacylation): deacylation of aminoacyl-tRNA, GlyRS 2 μM, 25° C.
Method: Deacylation assays. Large scale (200 μL) aminoacylation reactions were initiated using the conditions described above (iv). The reactions were allowed to proceed for 1 h at 37° C., after which each reaction mixture was phenol/chloroform extracted. In each case, the aminoacylated tRNA product was ethanol precipitated, and the buffer was exchanged using a micro Bio-Spin 6 column (BioRad) following the procedure specified by the manufacturer and 100 mM HEPES (pH 8.0) containing 100 mM KCl. The precise extent of aminoacylation was calculated using the procedure described above; the 2 μM concentration corresponds to total aminoacylated tRNA. Assays were performed at 25° C. in a 50 μL reaction with 2 μM [^32P]-aminoacyl-tRNA in 100 mM HEPES (pH 7.0) containing 100 mM KCl and 15 mM MgCl2.

[2] = biological target: T1, E. coli GlyRS; settings: aminoacylation; for kcat: 2 μM tRNA
[3] = tested on: BL21(DE3) cells expressing P7A7 ribosomes along with WT ribosomes; assay: Expression of DHFR in 19/20 minimal media supplemented with amino acid (SDS-PAGE); format: cell-based, E. coli; settings: media supplemented with 1 mM of the amino acid
From the text: (§1) To evaluate the extent of in vivo β^3-amino acid incorporation, BL21 (DE3) cells were co-transformed via electroporation (vide infra) with two plasmids. […] The other plasmid encoded either the WT rrnb sequence (pLK35-rrnb), the 040329 mutant reported by Hecht (pLK35-040329.rrnb), or the P7A7 mutant (pLK35-P7A7.rrnb) identified during the puromycin sensitivity screen described above.
(§2) ii. β^3-amino acid incorporation. The subsequent protocol for in vivo β^3-amino acid incorporation employed minimal media and was adapted from procedures reported by Tirrell and Cropp (Liu, et al., Bioorg Med Chem Lett, 20:5613 (2010); Mandavi, et al., J Am Chem Soc, 135:2979 (2013)). Briefly, all 5 mL of the co-transformed cells prepared as described above were diluted into 100 mL of LB containing 50 ng/mL of kanamycin and […] of carbenicillin and grown to OD600=1.0, spun down, and then resuspended in 1/10th the original volume of 19/20 minimal media (10.5 g/L M9 salts, 0.1 mM CaCl2, 1 mM MgSO4, 1% glycerol, 100 μM of each amino acid (minus α-Phe), 25 mg/L thiamine, […] carbenicillin, 30 ng/mL kanamycin, 1 mM IPTG) supplemented with 1 mM of α-Phe or a β^3-Phe analog. Cells were grown overnight (18 h) at 37° C. while shaking (200 rpm). The cells were harvested by centrifugation (10 min at 4000×g) and resuspended in lysis buffer (50 mM NaH2PO4, 300 mM NaCl, 10 mM imidazole (pH 8.0)). Lysis was performed by sonication (Branson Sonifier 250) with 5 cycles of 20 s on, 20 s off. Lysed cells were then centrifuged for 20 min at 15000×g. The clarified cell lysate was incubated with Ni-NTA resin (Qiagen) for 1 h while gently rotating at 4° C. The Ni-NTA column was washed with lysis buffer prior to eluting proteins with elution buffer (50 mM NaH2PO4, 300 mM NaCl, 300 mM imidazole (pH 8.0)). Elutions were analyzed with SDS-PAGE to prepare material for in-gel trypsin digestions. Controls included side-by-side growths in (1) unsupplemented 19/20 minimal media, which contains only low levels of α-Phe present (negative control); (2). 19/20 minimal media supplemented with 1 mM α-Phe (positive control) and (3) and 19/20 minimal media supplemented with 1 mM β^3-Gly (negative control; β^3-aa that is not a β^3-Phe analog).

[4] = tested on: BL21(DE3) cells expressing 040329 ribosomes along with WT ribosomes; assay: as above; format: cell-based, E. coli; settings: 040329 + WT ribosomes, media supplemented with 1 mM of the amino acid
From the text: as §1, §2

[5] = tested on: BL21(DE3) cells expressing only WT ribosomes; assay: as above; format: cell-based, E. coli; settings: 19/20 minimal media supplemented with 1 mM of the amino acid
From the text: as §1, §2

[6] = tested on: DHFR position 128 translated in E. coli BL21 (DE3); assay: Spectral counting (LC-MS/MS of tryptic peptides) of β3-(p-Br)Phe and α-Phe incorporation into DHFR in vivo; format: cell-based; settings: cells expressing 040329 ribosomes
From the text: as §1
as §2, with “19/20 minimal media supplemented with 1 mM α-Phe (positive control) and (3) and 19/20 minimal media supplemented with 1 mM β^3-Gly (negative control; β^3-aa that is not a β^3-Phe analog).” left out

[7] = biological target: T1, E. coli GlyRS; settings: adenylation; for kcat (min^−1) or RSA (^32P-ATP formed min^−1 enzyme μM^−1): 25° C., pH 7.0
Method: Adenylation of α- and β-Amino Acids Catalyzed by E. coli PheRS, GlyRS, MetRS, and GluRS. […] Briefly, assay mixtures (50 μL) assembled at 25° C. contained the requisite α- or β^3-amino acid substrate (between 5 μM and 5 mM) in 100 mM HEPES (pH 7.0) containing 100 mM KCl, 15 mM MgCl2, 2 mM ATP, 0.5 mM NaPPi, and 50 μCi [^32P]-NaPPi). Reactions were initiated upon addition of enzyme (10 nM MetRS, 10 nM PheRS, or 50 nM GlyRS; 100 nM GluRS for reactions with α-Glu or 1.13 μM GluRS for reactions with β^3-Glu), incubated for various times (10 sec to 10 min), and halted by adding a 5 μL reaction aliquot to 100 μL quenching solution (10% charcoal, 0.5% HCl). 50 μL of 200 mM NaPPi in 1.5 N HCl was then added to each quenched reaction to decrease nonspecific binding of pyrophosphate to the charcoal. Each quenched reaction was then filtered through Whatman filter paper (number 3), previously washed with washing solution (200 mM NaPPi in 1 N HCl) using a 96-well BIO-DOT® apparatus (BioRad). Each well of the apparatus was then washed four times with 200 μL aliquots of washing solution (by pipetting washing solution up and down at least 10 times per wash) to minimize nonspecific binding of pyrophosphate to charcoal. Each experimental well was paired with an analogous control well (no-enzyme control) that lacked enzyme; a single membrane contained time points for both α- and β^3-amino acid substrates and all no-enzyme controls. The membrane was allowed to dry and was protected with a sheet of Microseal B adhesive seals (Biorad) prior to exposure to a BAS Storage Phosphor screen. Screens were imaged on a Typhoon 9500FLA biomolecule imager and the signal intensity of each dot was quantified using ImageJ to determine the relative amount of [^32P]-ATP formed as a function of time (Ctime). Each raw value were corrected by subtracting the intensity of the dot corresponding to the appropriate no-enzyme control (Cblank) and the resulting corrected values of Ccorr (representing the relative amounts of ^32P-ATP formed) were plotted as a function of time to determine values of relative ^32P-ATP formed per minute. Those values were divided by the concentration of enzyme used, and the data was plotted as relative specific activity (^32P-ATP formed min^−1×μM^−1 enzyme) and fitted using Prism by performing nonlinear regression using the least squares method and Equation 1 to obtain RSA (relative specific activity) and KM values (Equation 1 and Table 2).
In Equation 1, v is the apparent relative specific activity (relative ^32P-ATP formed per minute) obtained at each substrate concentration divided by the enzyme concentration, RSA is the relative specific activity, S is the concentration of substrate, and KM is the Michaelis-Menten constant.

[8] = tested on: E. coli strains (BL21 (DE3)) with pUC18 rrnb plasmids; assay: Screen of library for sensitivity to erythromycin (growth inhibition, OD600); format: cell-based; settings: 6.8 μM erythromycin, E. coli with pUC18 plasmid encoding WT rrnb, 16-18 h
Method: (§3) To screen the resulting E. coli strains for antibiotic resistance, 2 μL of the 15% glycerol stocks prepared above were added to 98 μL of growth assay buffer (LB media (pH 8.35), 100 μg/mL carbenicillin, 1.0 mM IPTG, 6.8 μM erythromycin) in 384-well plates (Corning #3707). […] After 16-18 h, the extent of cell growth inhibition in the presence of antibiotic was determined by measuring the OD600 of each well using a SpectraMax M5 plate reader (Molecular Devices). The antibiotic-dependent inhibition of cell growth in each well was determined using Equation 4: [100−(OD600+A/OD600−A)×100] Equation 4 In this equation, OD600+A represents OD600 of wells containing antibiotic and OD600−A represents OD600 of wells lacking antibiotic.

[9] = tested on: E. coli strains (BL21 (DE3)) with pUC18 rrnb plasmids; assay: Screen of erythromycin-resistant library for sensitivity to β3-puromycin (growth inhibition, OD600); format: cell-based; settings: 250 μM β^3-puromycin, E. coli with pUC18 plasmid encoding WT rrnb
Method: as §3
The 1986 erythromycin-resistant clones identified above were then screened for sensitivity to β^3-puromycin sensitivity as described above, except that 250 μM β^3-puromycin was substituted for erythromycin.

T1 sequence (P00960 whole entry): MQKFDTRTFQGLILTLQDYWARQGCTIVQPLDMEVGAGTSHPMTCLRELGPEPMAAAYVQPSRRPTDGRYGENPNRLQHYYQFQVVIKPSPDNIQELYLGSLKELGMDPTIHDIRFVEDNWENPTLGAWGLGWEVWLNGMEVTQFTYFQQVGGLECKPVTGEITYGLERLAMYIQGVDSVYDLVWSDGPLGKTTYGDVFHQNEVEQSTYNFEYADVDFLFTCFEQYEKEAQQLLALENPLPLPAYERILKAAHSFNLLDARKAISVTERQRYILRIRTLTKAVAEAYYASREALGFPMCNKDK
T1 sequence (P00961 whole entry, further chain): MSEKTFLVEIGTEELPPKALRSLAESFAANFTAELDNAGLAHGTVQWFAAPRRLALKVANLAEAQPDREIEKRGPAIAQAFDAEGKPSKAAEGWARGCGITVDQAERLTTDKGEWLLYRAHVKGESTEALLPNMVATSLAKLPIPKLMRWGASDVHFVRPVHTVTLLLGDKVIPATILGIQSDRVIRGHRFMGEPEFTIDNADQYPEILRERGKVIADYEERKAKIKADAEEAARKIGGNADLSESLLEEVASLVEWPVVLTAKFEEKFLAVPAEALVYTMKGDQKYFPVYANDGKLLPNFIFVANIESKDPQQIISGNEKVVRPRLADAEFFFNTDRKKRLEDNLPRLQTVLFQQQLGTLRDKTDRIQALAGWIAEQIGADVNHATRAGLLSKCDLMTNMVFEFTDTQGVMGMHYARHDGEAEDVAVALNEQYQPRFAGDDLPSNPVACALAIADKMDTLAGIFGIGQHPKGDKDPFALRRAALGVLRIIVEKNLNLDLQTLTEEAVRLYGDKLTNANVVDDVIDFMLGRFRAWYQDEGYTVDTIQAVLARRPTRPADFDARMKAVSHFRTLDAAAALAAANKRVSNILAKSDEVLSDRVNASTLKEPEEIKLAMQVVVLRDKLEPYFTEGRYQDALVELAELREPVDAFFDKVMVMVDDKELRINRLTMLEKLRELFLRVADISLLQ

NCCC(=O)O [β-Gly, β^3-glycine]
krev (apparent rate of deacylation) [1]: 0.71 ± 0.09 min⁻¹ | Km [2]: 11.1 ± 2.8 µM | kcat [2]: 0.0517 ± 0.0017 s⁻¹ | level of DHFR [3]: lower levels | level of DHFR [4]: significant levels | amount of DHFR generated [5]: trace amounts | incorporation at position 128 of DHFR (LC-MS/MS) [6]: no evidence | Km [7]: 68.4 ± 47.3 µM | kcat (min^−1) or RSA (^32P-ATP formed min^−1 enzyme μM^−1) [7]: 146.4 ± 29.2 ^32P-ATP formed min^−1 enzyme μM^−1

CC[C@H]1OC(=O)[C@H](C)[C@@H](O[C@H]2C[C@@](C)(OC)[C@@H](O)[C@H](C)O2)[C@H](C)[C@@H](O[C@@H]2O[C@H](C)C[C@H](N(C)C)[C@H]2O)[C@](C)(O)C[C@@H](C)C(=O)[C@H](C)[C@@H](O)[C@]1(C)O [erythromycin]
growth inhibition [8]: full growth inhibition

NCC(=O)O [α-Gly, Glycine]
krev (apparent rate of deacylation) [1]: 0.21 ± 0.08 min⁻¹ | Ratio (α/β) of krev ([1]; deacylation, GlyRS): 0.3 ± 0.1 | Km [2]: 13.4 ± 4.7 µM | Ratio (α/β) of KM [2]: 1.2 ± 1.00 | Ratio (α/β) of kcat [2]: 1.9 ± 1.0 | Ratio (α/β) of kcat/KM [2]: 1.5 ± 0.7 | kcat [2]: 0.0967 ± 0.0083 s⁻¹ | Km [7]: 9.8 ± 3.5 µM | Ratio (α-/β-) of KM [7]: 0.14 ± 0.11 | Ratio (α-/β-) of RSA [7]: 1.14 ± 0.24 | Ratio (α-/β-) of kcat/KM [7]: 7.97 ± 6.46 | kcat (min^−1) or RSA (^32P-ATP formed min^−1 enzyme μM^−1) [7]: 166.8 ± 12.8 ^32P-ATP formed min^−1 enzyme μM^−1

COc1ccc(CC(N)CC(=O)NC2C(CO)OC(n3cnc4c(N(C)C)ncnc43)C2O)cc1 (stereo not drawn) [β^3-puromycin]
growth inhibition [9]: lack of growth inhibition
